Experimental data: patent US8703172B2, “Sphingolipids for improvement of the composition of the intestinal flora” (Nederlandse Organizatie voor …, priority 2003, dated 2014)
In brackets after ≈: the same amount, converted by molar mass. Entries after “also recorded” stand apart in the source; their conditions may differ. Like-named read-outs stand apart in the source and are kept apart here.

What was measured:
Bacillus cereus = experiment: MIC on agar plates (TSA); details: for MIC, B. cereus: TSA agar plate, aerobic, 48 hours at 30° C.; for MIC: Bacillus cereus, 48 h, read-out: MIC, B. cereus
Bacteroides fragilis = experiment: MIC on agar plates (RCBA); format: cell-based; details: RCBA agar plate, anaerobic, 72 hours at 30° C.; for MIC: Bacteroides fragilis, read-out: MIC, B. fragilis
Leuconostoc carnosum = experiment: MIC on agar plates (MRSA); details: for MIC, L. carnosum: agar plate, anaerobic, 72 hours at 30° C.; for MIC: 72 h, read-out: MIC, L. carnosum
Salmonella enteritidis = experiment: MIC on agar plates (TSA); format: cell-based; details: TSA agar plate, aerobic, 48 hours at 30° C.; for MIC: Salmonella enterica, ENTERITIDIS, read-out: MIC, S. enteritidis
Bifidobacterium spp. = experiment: MIC on agar plates (RCBA); format: cell-based; details: RCBA agar plate, anaerobic, 72 hours at 30° C.; for MIC: Bifidobacterium, read-out: MIC, Bif. spp.
[1] = system: Bifidobacterium adolescentis; experiment: MIC on agar plates (RCBA); format: cell-based; details: RCBA agar plate, anaerobic, 72 hours at 30° C.; for MIC: Bifidobacterium adolescentis, read-out: MIC, B. adolescentis
[2] = system: Streptococcus suis type 2; experiment: MIC on agar plates (TSA); details: for MIC, S. suis type 2: TSA agar plate, aerobic, 48 hours at 30° C.; for MIC: Streptococcus suis, TYPE2, 48 h, read-out: MIC, S. suis type 2
Listeria monocytogenes = experiment: MIC on agar plates (TSA); details: for MIC, L. monocytogenes: TSA agar plate, aerobic, 48 hours at 30° C.; for MIC: Listeria monocytogenes, 48 h, read-out: MIC, L. monocytogenes
Lactobacillus sake = experiment: MIC on agar plates (MRSA); details: for MIC, L. sake: anaerobic, 72 hours at 30° C.; for MIC: Latilactobacillus sakei, 72 h, read-out: MIC, L. sake
Lactobacillus casei = experiment: MIC on agar plates (MRSA); details: for MIC, L. casei: MRSA agar plate, anaerobic, 72 hours at 30° C.; for MIC: Lacticaseibacillus casei, 72 h, read-out: MIC, L. casei
bacteria tested = experiment: Antimicrobial activity on agar plates, summary for the bacteria tested; format: cell-based
Enterococcus hirae = experiment: MIC on agar plates (MRSA); details: for MIC, E. hirae: MRSA agar plate, anaerobic, 72 hours at 30° C.; for MIC: Enterococcus hirae, 72 h, read-out: MIC, E. hirae
Pseudomonas aeruginosa = experiment: MIC on agar plates (TSA); format: cell-based; details: TSA agar plate, aerobic, 48 hours at 30° C.; for MIC: Pseudomonas aeruginosa, read-out: MIC, P. aeruginosa
Clostridium spp. = experiment: MIC on agar plates (RCBA); format: cell-based; details: for MIC: Clostridium, 72 h, read-out: MIC, C. spp.
[3] = system: Lactobacillus acidophilus; experiment: MIC on agar plates (MRSA); details: for MIC, L. acidophilus: anaerobic, 72 hours at 30° C.; for MIC: Lactobacillus acidophilus, 72 h, read-out: MIC, L. acidophilus
Fusobacterium nucleatum = experiment: MIC on agar plates (RCBA); format: cell-based; details: for MIC: Fusobacterium nucleatum, read-out: MIC, F. nucleatum
Clostridium perfringens = experiment: microbe, parasite or virus in culture; format: cell-based; details: 72 h, read-out: MIC, C. perfringens
Gram-positive bacteria = experiment: Antimicrobial activity on agar plates, summary for Gram-positive bacteria; format: cell-based
Clostridium difficile [4] = experiment: Survival in liquid ileum medium; format: cell-based; details: within 200 minutes
Clostridium difficile [5] = experiment: MIC on agar plates (RCBA); format: cell-based; details: Clostridioides difficile; RCBA agar plate, anaerobic, 72 hours at 30° C.
[6] = system: Lactobacillus acidophilus; experiment: Antimicrobial activity in small intestine model TIM-1; format: cell-based; details: 20 μg/ml of sphingolipid; lumen samples plated on Rogosa agar
[7] = pig, in vivo
Method: (§1) Because the sphingolipids need to be transported together with the food to the small and large intestines to be able to be active there, the transport of phytosphingosine and sphinganine in the stomach and small intestine model TIM-1 was tested. Also, the transport of phytosphingosine in a fistulated pig was tested after the animal had been fed with feed containing phytosphingosine (1 wt. %). In a fistulated pig, the small intestine is uncoupled from the large intestine so that the digested feed at the end of the small intestine can be collected.
To investigate in an in vivo system whether sphingolipids from the food do actually arrive in the large intestine and are not prematurely absorbed or metabolized, pig basic feed to which phytosphingosine (1 wt. %) was added was fed to a fistulated pig.
The feed was prepared by mixing a solution of phytosphingosine in ethanol with the feed and drying it in vacuo. Every hour, the intestinal content (chymus) at the end of the small intestine was separately collected and frozen dry. The dry intestinal contents were then extracted with chloroform/methanol (2:1, v/v). The extracts were then filtered over glass wool and evaporated under a nitrogen flow. The residues were examined for the presence of phytosphingosine, sphingosine, sphinganine and sphingomyelin by means of LC-MS.

Clostridium difficile [8] = experiment: Antimicrobial activity in small intestine model TIM-1; format: cell-based; details: 20 μg/ml of sphingolipid; lumen samples plated on Clostridium difficile agar
[9] = format: in vitro ADME
Method: as §1
To investigate whether sphingolipids from the food are transported through the small intestine without being absorbed or being chemically or enzymatically modified in the small intestine, phytosphingosine and sphinganine were mixed in a standard Tim-1 food and exposed to a TIM-1 treatment. Of each sphingolipid, 5 mg per 100 grams of food (0.005 wt. %) in the food were tested. After starting the TIM-1 digestion processes in the TIM-1 stomach, at the fixed times, lumen samples of 100 grams were taken. Also, dialysate samples were taken from the material which was transported through the semi-permeable TIM-1 membrane. The dialysate samples varied between 1428 and 1122 grams. […] Next to the samples, the exposure time in minutes is given.

[10] = system: Lactobacillus acidophilus; experiment: Survival in liquid ileum medium; details: within 200 minutes
[11] = RCBA agar plate, anaerobic, 72 hours at 30° C.
[12] = ileum medium, absence of bile, 10 and 50 μg/ml
[13] = 60 min, 5 mg per 100 grams of food
[14] = 120 min, 5 mg per 100 grams of food
[15] = 180 min, 5 mg per 100 grams of food
[16] = 240 min, 5 mg per 100 grams of food

## glucosylceramide III
Bacillus cereus
  MIC, B. cereus: >365 µg/mL
Bacteroides fragilis
  MIC, B. fragilis: >365 µg/mL
Leuconostoc carnosum
  MIC, L. carnosum: >365 µg/mL
Salmonella enteritidis
  MIC, S. enteritidis: >365 µg/mL
Bifidobacterium spp.
  MIC, Bif. spp.: >365 µg/mL
[1]
  MIC, B. adolescentis: >365 µg/mL
[2]
  MIC, S. suis type 2: >365 µg/mL
Listeria monocytogenes
  MIC, L. monocytogenes: >365 µg/mL
Lactobacillus sake
  MIC, L. sake: >365 µg/mL
Lactobacillus casei
  MIC, L. casei: >365 µg/mL
Bacteria tested
  Inhibition of the bacteria tested: do not inhibit any of the bacteria tested
Enterococcus hirae
  MIC, E. hirae: >365 µg/mL
Pseudomonas aeruginosa
  MIC, P. aeruginosa: >365 µg/mL
Clostridium spp.
  MIC, C. spp.: >365 µg/mL
[3]
  MIC, L. acidophilus: >365 µg/mL
Fusobacterium nucleatum; [11]
  MIC, F. nucleatum: >365 µg/mL

## CC(=O)O.CCCCCCCCCCCCCCC[C@@H](O)[C@@H](N)CO [Sphinganine, sphinganine acetate]
Bacillus cereus
  MIC: < 6.3 µg/mL
Bacteroides fragilis
  MIC: 0.3 µg/mL
Clostridium perfringens
  MIC: > 36.5 µg/mL
Leuconostoc carnosum
  MIC: < 0.3 µg/mL
Salmonella enteritidis
  MIC: > 731 µg/mL
Bifidobacterium spp.
  MIC: 0.9 µg/mL
Gram-positive bacteria; agar plates, acetate
  Antimicrobial activity against Gram-positive bacteria: killed; also recorded: strong antimicrobial activity
Clostridium difficile [4]; [12]
  Killing of Clostridium difficile: virtually completely killed
Clostridium difficile [4]; liquid cultures, 50 ppm
  Killing of Clostridium difficile: for the larger part killed
Clostridium difficile [5]
  MIC: > 73 µg/mL
[6]
  Antimicrobial activity against Lactobacillus acidophilus in TIM-1: no demonstrable antimicrobial activity
[1]
  MIC: > 73 µg/mL
[7]
  Presence in the intestinal contents at the end of the small intestine: small amounts
[2]
  MIC: < 6.3 µg/mL
Listeria monocytogenes
  MIC: < 6.3 µg/mL
Lactobacillus sake
  MIC: > 70 µg/mL
Lactobacillus casei
  MIC: 246 µg/mL
Clostridium difficile [8]
  Antimicrobial activity against Clostridium difficile in TIM-1: no demonstrable antimicrobial activity
Enterococcus hirae
  MIC: > 731 µg/mL
[9]
  Transport through the TIM-1 system: transported to the large intestine to a sufficient extent
[9]; 5 mg per 100 grams of food
  Concentration in TIM-1 sample: Dialysate ileum 0-120′: 0 ng/mL
  Concentration in TIM-1 sample: Dialysate ileum 120-240′: 0 ng/mL
  Concentration in TIM-1 sample: Dialysate jejunum 0-120′: 0 ng/mL
  Concentration in TIM-1 sample: Dialysate jejunum 120-240′: 0 ng/mL
  Concentration in TIM-1 sample: Food: 19360 ng/mL
  Concentration in TIM-1 sample: Residue jejunum/ileum + dialysis fluid: 8620 ng/mL
  Concentration in TIM-1 sample: Residue stomach/duodenum + dialysis fluid: 2730 ng/mL
  Share of the amount used found in the samples (rough mass balance): approx. 20%
[9]; [13]
  Concentration in TIM-1 sample: Lumen ileum 60′: 740 ng/mL
  Concentration in TIM-1 sample: Lumen jejunum 60′: 8750 ng/mL
[9]; [14]
  Concentration in TIM-1 sample: Lumen ileum 120′: 4520 ng/mL
  Concentration in TIM-1 sample: Lumen jejunum 120′: 11510 ng/mL
[9]; [15]
  Concentration in TIM-1 sample: Lumen ileum 180′: 5300 ng/mL
  Concentration in TIM-1 sample: Lumen jejunum 180′: 12470 ng/mL
[9]; [16]
  Concentration in TIM-1 sample: Lumen ileum 240′: 7910 ng/mL
  Concentration in TIM-1 sample: Lumen jejunum 240′: 10460 ng/mL
Pseudomonas aeruginosa
  MIC: > 731 µg/mL
Clostridium spp.
  MIC: > 73 µg/mL
[3]
  MIC: 222 µg/mL
Fusobacterium nucleatum; 72 h
  MIC: > 731 µg/mL
[10]; [12]
  Killing of Lactobacillus acidophilus: virtually completely killed
[10]; liquid cultures, 50 ppm
  Killing of Lactobacillus acidophilus: for the larger part killed

## CCCCCCCCCCCCC/C=C/[C@@H](O)[C@@H](N)CO [Sphingosine, sphingosine]
Bacillus cereus
  MIC: < 6.3 µg/mL
Bacteroides fragilis
  MIC: < 6.3 µg/mL
Leuconostoc carnosum
  MIC: < 6.3 µg/mL
Salmonella enteritidis
  MIC: > 731 µg/mL
Bifidobacterium spp.
  MIC: < 6.3 µg/mL
Gram-positive bacteria
  Antimicrobial activity against Gram-positive bacteria: killed; also recorded: strong antimicrobial activity
[1]
  MIC: < 6.3 µg/mL
[7]
  Presence in the intestinal contents at the end of the small intestine: No sphingosine could be demonstrated
[2]
  MIC: < 6.3 µg/mL
Listeria monocytogenes
  MIC: < 6.3 µg/mL
Lactobacillus sake
  MIC: < 6.3 µg/mL
Lactobacillus casei
  MIC: < 6.3 µg/mL
Enterococcus hirae
  MIC: 84 µg/mL (≈ 280 µM)
Pseudomonas aeruginosa
  MIC: > 731 µg/mL
Clostridium spp.
  MIC: < 6.3 µg/mL
[3]
  MIC: < 6.3 µg/mL
Fusobacterium nucleatum; [11]
  MIC: < 6.3 µg/mL

## CCCCCCCCCCCCC/C=C/[C@@H](O)[C@@H](N)COP(=O)([O-])OCC[N+](C)(C)C [Lysosphingomyelin, lysosphingomyelin]
Bacillus cereus
  MIC, B. cereus: <3.1 µg/mL
Bacteroides fragilis
  MIC, B. fragilis: 11.4 µg/mL (≈ 24.5 µM)
Leuconostoc carnosum
  MIC, L. carnosum: <3.1 µg/mL
Salmonella enteritidis
  MIC, S. enteritidis: >365 µg/mL
Bifidobacterium spp.
  MIC, Bif. spp.: 10 µg/mL (≈ 21.5 µM)
Gram-positive bacteria; agar plates
  Antimicrobial activity against Gram-positive bacteria: killed; also recorded: strong antimicrobial activity
[1]
  MIC, B. adolescentis: <3.1 µg/mL
[2]
  MIC, S. suis type 2: <3.1 µg/mL
Listeria monocytogenes
  MIC, L. monocytogenes: <3.1 µg/mL
Lactobacillus sake
  MIC, L. sake: 20 µg/mL (≈ 43 µM)
Lactobacillus casei
  MIC, L. casei: >365 µg/mL
Enterococcus hirae
  MIC, E. hirae: >365 µg/mL
Pseudomonas aeruginosa
  MIC, P. aeruginosa: >365 µg/mL
Clostridium spp.; [11]
  MIC, C. spp.: <3.1 µg/mL
[3]
  MIC, L. acidophilus: 16.6 µg/mL (≈ 35.7 µM)
Fusobacterium nucleatum; [11]
  MIC, F. nucleatum: >365 µg/mL
